Each structure is given as a SMILES string.

In the case of `Cc1cc(-c2ccc(Cl)cc2)nc(-c2ccnc(-c3ccc(N)nc3)c2)n1` [Example 112, 4-[4-(4-Chloro-phenyl)-6-methyl-pyrimidin-2-yl]-[2,3′]bipyridinyl-6′-ylamine], the melting point (as a rule, the temperature of the solid-liquid transition) is 199 °C. The same measure for `Nc1ccc(-c2cccc(-c3nc(-c4ccc(Cl)cc4)cc(C(F)(F)F)n3)c2)cn1` [Example 27, 5-{3-[4-(4-Chloro-phenyl)-6-trifluoromethyl-pyrimidin-2-yl]-phenyl}-pyridin-2-ylamine]: 171 °C; for `Cc1cc(-c2ccc(C(F)(F)F)cc2)nc(-c2cccc(-c3cccc(S(N)(=O)=O)c3)n2)n1` [Example 419, 3-{6-[4-Methyl-6-(4-trifluoromethyl-phenyl)-pyrimidin-2-yl]-pyridin-2-yl}-benzenesulfonamide]: 239 °C (dec.); for `Cc1cc(-c2ccc(C(F)(F)F)cc2)cc(-c2ccnc(-c3cccc(S(N)(=O)=O)c3)c2)n1` [Example 289, 3-[6-Methyl-4-(4-trifluoromethyl-phenyl)-[2,4′]bipyridinyl-2′-yl]-benzenesulfonamide]: greater than 250 °C. The same measure for `FC(F)(F)c1cc(-c2ccc(Cl)cc2)nc(-n2cnc(-c3cccnc3)c2)n1` [Example 7, 4-(4-Chloro-phenyl)-2-(4-pyridin-3-yl-imidazol-1-yl)-6-trifluoromethyl-pyrimidine]: 228 °C.

In turn, `Cc1cc(-c2ccc(C(F)(F)F)cc2)nc(-n2cnc(-c3cnc(N)nc3)c2)n1` [Example 47, 5-{1-[4-Methyl-6-(4-trifluoromethyl-phenyl)-pyrimidin-2-yl]-1H-imidazol-4-yl}-pyrimidin-2-ylamine] came in with a melting point of 267 to 269 °C. The same measure for `Cc1cc(-c2cc(C(F)(F)F)nc(-c3cccc(-c4cnc(N)nc4)c3)n2)ccc1C(F)(F)F` [Example 124, 5-{3-[4-(3-Methyl-4-trifluoromethyl-phenyl)-6-trifluoromethyl-pyrimidin-2-yl]-phenyl}-pyrimidin-2-ylamine]: 244 °C; for `Cc1cc(-c2ccc(C(F)(F)F)cc2)cc(-c2nc(-c3ccc(S(=O)(=O)NC(C)(C)C)s3)cs2)n1` [Example 324, 5-{2-[6-Methyl-4-(4-trifluoromethyl-phenyl)-pyridin-2-yl]-thiazol-4-yl}-thiophene-2-sulfonic acid tert-butylamide]: 171 °C. Next, `Cc1nc(-c2ccc(N)nc2)cn1-c1nc(-c2ccc(C(F)(F)F)cc2)cc(C(F)(F)F)n1` [Example 142, 5-{2-Methyl-1-[4-trifluoromethyl-6-(4-trifluoromethyl-phenyl)-pyrimidin-2-yl]-1H-imidazol-4-yl}-pyridin-2-ylamine]: 285 °C. The same measure for `Cc1cc(-c2ccc(C(F)(F)F)cc2)nc(-c2cccc(-c3cccc(S(=O)(=O)NC(C)(C)C)c3)n2)n1` [Example 418, N-tert-Butyl-3-{6-[4-methyl-6-(4-trifluoromethyl-phenyl)-pyrimidin-2-yl]-pyridin-2-yl}-benzenesulfonamide]: greater than 250 °C; for `Cc1cc(-c2ccc(C(F)(F)F)cc2)cc(-c2cccc(-c3ccc(S(=O)(=O)NC(C)(C)C)s3)n2)n1` [Example 305, 5-[6′-Methyl-4′-(4-trifluoromethyl-phenyl)-[2,2′]bipyridinyl-6-yl]-thiophene-2-sulfonic acid tert-butylamide]: 227 °C; for `Nc1ccc(-c2noc(-c3nc(-c4ccc(Cl)c(Cl)c4)cc(C(F)(F)F)n3)n2)cn1` [Example 100, 5-{5-[4-(3,4-Dichloro-phenyl)-6-trifluoromethyl-pyrimidin-2-yl]-[1,2,4]oxadiazol-3-yl}-pyridin-2-ylamine]: 227 °C. `NS(=O)(=O)c1cccc(-c2cc(-c3nc(-c4ccc(F)c(F)c4)cc(C(F)(F)F)n3)ccn2)c1` [Example 400, 3-{4-[4-(3,4-Difluoro-phenyl)-6-trifluoromethyl-pyrimidin-2-yl]-pyridin-2-yl}-benzenesulfonamide] had a melting point of 233.5 °C. The same measure for `Cc1cc(-c2ccc(C(F)(F)F)cc2)cc(-c2cccc(-c3cccc(S(=O)(=O)N4CCCC4)c3)n2)n1` [Example 369, 6-Methyl-6′-[3-(pyrrolidine-1-sulfonyl)-phenyl]-4-(4-trifluoromethyl-phenyl)-[2,2′]bipyridinyl]: 174 °C; for `Cc1cc(-c2ccc(C(F)(F)F)cc2)cc(-c2cccc(-c3cccc(S(=O)(=O)N(C)C4CC4)c3)n2)n1` [Example 425, N-Cyclopropyl-N-methyl-3-[6′-methyl-4′-(4-trifluoromethyl-phenyl)-[2,2′]bipyridinyl-6-yl]-benzenesulfonamide]: 157 °C; for `Cc1cc(-c2ccc(C(F)(F)F)cc2)cc(-c2cccc(-c3cccc(S(=O)(=O)N4CCS(=O)(=O)CC4)c3)n2)n1` [Example 368, 6′-[3-(1,1-Dioxo-1λ6-thiomorpholine-4-sulfonyl)-phenyl]-6-methyl-4-(4-trifluoromethyl-phenyl)-[2,2′]bipyridinyl]: 230 °C (dec.). The same measure for `Cc1cc(-c2ccc(C(F)(F)F)cc2)cc(-c2cncc(-c3cccc(S(N)(=O)=O)c3)c2)n1` [Example 295, 3-[6-Methyl-4-(4-trifluoromethyl-phenyl)-[2,3′]bipyridinyl-5′-yl]-benzenesulfonamide]: 235 °C (dec.); for `Cc1cc(-c2ccc(OC(F)(F)F)cc2)cc(-c2cccc(-c3cccc(S(N)(=O)=O)c3)n2)n1` [Example 437, 3-[6′-Methyl-4′-(4-trifluoromethoxy-phenyl)-[2,2′]bipyridinyl-6-yl]-benzenesulfonamide]: 231 °C (dec.). Next, `NS(=O)(=O)c1cncc(-c2cn(-c3cc(C(F)(F)F)cc(-c4ccc(C(F)(F)F)cc4)n3)cn2)c1` [Example 290, 5-{1-[4-Trifluoromethyl-6-(4-trifluoromethyl-phenyl)-pyridin-2-yl]-1H-imidazol-4-yl}-pyridine-3-sulfonic acid amide]: greater than 250 °C; `Cc1cc(-c2ccc(C(F)(F)F)cc2)cc(-c2nccs2)n1` [Example 251, 2-Methyl-6-thiazol-2-yl-4-(4-trifluoromethyl-phenyl)-pyridine]: 103 °C; `Cc1cc(-c2cc(C(F)(F)F)nc(-c3ccnc(-c4cccc(S(N)(=O)=O)c4)c3)n2)ccc1Cl` [Example 415, 3-{4-[4-(4-Chloro-3-methyl-phenyl)-6-trifluoromethyl-pyrimidin-2-yl]-pyridin-2-yl}-benzenesulfonamide]: 234 °C. `NS(=O)(=O)c1ccc(-c2cc(-c3nc(-c4ccc(Cl)c(Cl)c4)cc(C(F)(F)F)n3)ccn2)s1` [Example 205, 5-{4-[4-(3,4-Dichloro-phenyl)-6-trifluoromethyl-pyrimidin-2-yl]-pyridin-2-yl}-thiophene-2-sulfonic acid amide] registered a melting point of 266 °C. For `Cc1cc(-c2ccc(C(F)(F)F)cc2)nc(-c2cccc(-c3cccc(S(=O)(=O)NC(C)(C)C)c3)c2)n1` [Example 165, 3′-[4-Methyl-6-(4-trifluoromethyl-phenyl)-pyrimidin-2-yl]-biphenyl-3-sulfonic acid tert-butylamide], the melting point is 163 °C.

`Cc1cc(-c2ccc(C#N)cc2)nc(-c2cccc(-c3cccc(S(N)(=O)=O)c3)n2)n1` [Example 442, 3-{6-[4-(4-Cyano-phenyl)-6-methyl-pyrimidin-2-yl]-pyridin-2-yl}-benzenesulfonamide]: the melting point was determined as 255 °C.

The compound `Cc1cc(-c2cc(C(F)(F)F)nc(-n3cnc(-c4ccc(S(N)(=O)=O)cc4)c3)n2)ccc1C(F)(F)F` [Example 212, 4-{1-[4-(3-Methyl-4-trifluoromethyl-phenyl)-6-trifluoromethyl-pyrimidin-2-yl]-1H-imidazol-4-yl}-benzenesulfonamide] yielded a melting point of 287 °C. `Cc1cc(-c2ccc(Cl)cc2)cc(-c2cccc(-c3cnc(N)nc3)c2)n1` [Example 82, 5-{3-[4-(4-Chloro-phenyl)-6-methyl-pyridin-2-yl]-phenyl}-pyrimidin-2-ylamine] came in with a melting point of 197 to 199 °C. The same measure for `Cc1cc(-c2cc(C(F)(F)F)nc(-n3cnc(-c4ccc(S(N)(=O)=O)s4)c3)n2)ccc1C(F)(F)F` [Example 209, 5-{1-[4-(3-Methyl-4-trifluoromethyl-phenyl)-6-trifluoromethyl-pyrimidin-2-yl]-1H-imidazol-4-yl}-thiophene-2-sulfonic acid amide]: 260 °C; for `Cc1cc(-c2ccc(C(F)(F)F)cc2)cc(-c2ccnc(-c3ccc(S(N)(=O)=O)s3)n2)n1` [Example 315, 5-{4-[6-Methyl-4-(4-trifluoromethyl-phenyl)-pyridin-2-yl]-pyrimidin-2-yl}-thiophene-2-sulfonic acid amide]: greater than 250 °C; for `Cc1cc(-c2ccc(C(F)(F)F)cc2)nc(-c2ccnc(-c3cccc(N)c3)c2)c1` [Example 361, 3-[4-Methyl-6-(4-trifluoromethyl-phenyl)-[2,4]bipyridinyl-2′-yl]-phenylamine]: 87 °C (dec.).

With `COc1cc(-c2cc(C)nc(-c3ccnc(-c4cccc(S(N)(=O)=O)c4)c3)c2)ccc1C(F)(F)F` [Example 340, 3-[4-(3-Methoxy-4-trifluoromethyl-phenyl)-6-methyl-[2,4′]bipyridinyl-2′-yl]-benzenesulfonamide], the melting point is 233 °C (dec.). With `Cc1cc(-c2ccc(Cl)cc2)nc(-c2nc(-c3ccc(S(N)(=O)=O)cc3)no2)n1` [Example 136, 4-{5-[4-(4-Chloro-phenyl)-6-methyl-pyrimidin-2-yl]-[1,2,4]oxadiazol-3-yl}-benzenesulfonamide], the melting point stood at 297 °C.

The compound `NS(=O)(=O)c1cccc(-c2cccc(-c3nc(-c4ccc(C(F)(F)F)cc4)cc(C(F)F)n3)c2)c1` [Example 456, 3′-[4-Difluoromethyl-6-(4-trifluoromethyl-phenyl)-pyrimidin-2-yl]-biphenyl-3-sulfonic acid amide] had a melting point of 204 °C. As for `NS(=O)(=O)c1cccc(-c2cccc(-c3nc(-c4ccc(C(F)(F)F)c(F)c4)cc(C(F)(F)F)n3)c2)c1` [Example 460, 3′-[4-(3-Fluoro-4-trifluoromethyl-phenyl)-6-trifluoromethyl-pyrimidin-2-yl]-biphenyl-3-sulfonic acid amide], the melting point was 227.5 °C.
